According to PMC7156724, “Potent BRD4 inhibitor suppresses cancer cell-macrophage interaction” (Nature Communications, 2020):
“And” between values parts separate entries of the source, which are not always exact repeats. Equal values may be shown once.

Legend:
BRD4 (BD1+BD2) = target: T1, BRD4 (BD1+BD2) (Homo sapiens, UniProt O60885); experiment: BRD4 (BD1+BD2) TR-FRET binding assay; details: for Biochemical activity against BRD4 (BD1 + BD2): replicates; for IC50: average IC50, nM, read-out: IC50, biochemical activity against BRD4 (BD1 + BD2)
T1 construct: purchased BPS 32612
Excerpt: 2. BRD4 binding assay. The inhibitory effects of NHWD-530, NHWD-540, NHWD- […]
(BPS, Cat # 32612) per manufacturer’s instructions. […]

[1] = tested on: MDA-MB231 triple negative breast cancer (TNBC) cells; experiment: AlamarBlue assay, MDA-MB231; type: cell-based, human; details: for Cellular activity in TNBCs (MDA-MB231), alamarBlue: Fig.1f, replicates; for IC50: Homo sapiens, MDA-MB-231, 72 h, 72 h treatment, nM, read-out: IC50, cellular activity in MDA-MB231 (alamarBlue)
Experimental: (§1) 3. AlamarBlue assay. AlamarBlue was made by resazurin sodium salt (Sigma, Cat
(§2) # 199303) dissolved in PBS.
(§3) NCI-H211, MDA-MB231 and A375 cells were plated in 96-well plates at approximately 30% confluence and left overnight to adhere. In the following day, […]
(§4) of treatment, 10 μl AlamarBlue reagent (0.3 mg/ml) was added to each well, and after 18h, the florescence intensity in each well was measured using a top-reading fluorescent plate reader with excitation at 530 nm and emission at 590 nm. […]

[2] = tested on: NCI-H211 small cell lung cancer (SCLC) cells; experiment: AlamarBlue assay, NCI-H211; type: cell-based; details: for Cellular activity in SCLCs (H211), alamarBlue: Fig.1e, replicates; for IC50: Homo sapiens, NCI-H211, 72 h, 72 h treatment, nM, read-out: IC50, cellular activity in NCI-H211 (alamarBlue)
Experimental: as §1, §2, §3, §4

[3] = Fig.1b, concentration(nM) 0.0339849
[4] = Fig.1b, concentration(nM) 0.137272
[5] = Fig.1b, concentration(nM) 0.614394
[6] = Fig.1b, concentration(nM) 1.09152
[7] = Fig.1b, concentration(nM) 1.56864
[8] = Fig.1b, concentration(nM) 2.04576
[9] = Fig.1b, concentration(nM) 2.52288
[10] = Fig.1d, concentration(nM) 0.0021442
[11] = Fig.1d, concentration(nM) 0.061236
[12] = Fig.1d, concentration(nM) 0.103
[13] = Fig.1d, concentration(nM) 0.59176
[14] = Fig.1d, concentration(nM) 1.19382
[15] = Fig.1d, concentration(nM) 1.79588
[16] = Fig.1d, concentration(nM) 2.39794
[17] = concentration column prints 2.52288

Row | Compound | Biochemical activity against BRD4 (BD1 + BD2) (BRD4 (BD1+BD2); [3]) | Biochemical activity against BRD4 (BD1 + BD2) (BRD4 (BD1+BD2); [4]) | Biochemical activity against BRD4 (BD1 + BD2) (BRD4 (BD1+BD2); [5]) | Biochemical activity against BRD4 (BD1 + BD2) (BRD4 (BD1+BD2); [6]) | Biochemical activity against BRD4 (BD1 + BD2) (BRD4 (BD1+BD2); [7]) | Biochemical activity against BRD4 (BD1 + BD2) (BRD4 (BD1+BD2); [8]) | Biochemical activity against BRD4 (BD1 + BD2) (BRD4 (BD1+BD2); [9]) | Biochemical activity against BRD4 (BD1 + BD2) (BRD4 (BD1+BD2); Fig.1b, concentration(nM) 3) | IC50 (BRD4 (BD1+BD2)) [nM] | Cellular activity in TNBCs (MDA-MB231), alamarBlue ([1]; concentration 0.15) | Cellular activity in TNBCs (MDA-MB231), alamarBlue ([1]; concentration 0.6) | Cellular activity in TNBCs (MDA-MB231), alamarBlue ([1]; concentration 1) | Cellular activity in TNBCs (MDA-MB231), alamarBlue ([1]; concentration 1.5) | Cellular activity in TNBCs (MDA-MB231), alamarBlue ([1]; concentration 2) | Cellular activity in TNBCs (MDA-MB231), alamarBlue ([1]; concentration 2.5) | Cellular activity in TNBCs (MDA-MB231), alamarBlue ([1]; concentration 3) | Cellular activity in TNBCs (MDA-MB231), alamarBlue ([1]; concentration -0.3) | Cellular activity in TNBCs (MDA-MB231), alamarBlue ([1]; concentration -0.9) | IC50 [1] [nM] | Biochemical activity against BRD4 (BD1 + BD2) (BRD4 (BD1+BD2); [10]) | other results
1 | Cc1nnn(C)c1-c1cnc2c3cc4c(cc3n([C@H](c3ccccc3)C3CCOCC3)c2c1)C(=O)N(C)C4 [NHWD-530] | 0.9223 and 6.575 | 8.361 and 5.3853 | 7.766 and 14.6266 | 25.6174 and 20.5594 | 58.197 | 88.9914 and 87.355 | 96.1321 and 98.9586 | 102.231 and 101.636 | 28.5 | – | – | – | – | – | – | – | – | – | – | – | –
2 | Cc1nnn(C)c1-c1cnc2c3c4c(ccc3n([C@H](c3ccccc3)C3CCOCC3)c2c1)cnn4C [NHWD-860] | – | – | – | – | – | – | – | – | 9.33 ± 0.97 | 14.34 and 13.82 | 35.72 and 34.62 | 67.92 and 71.9 | 82.83 and 82.68 | 87.1 and 88.94 | 87.8 and 87.94 | 90.46 and 89.59 | 5.89 and 8.33 | 3.7 and 7.12 | 7.08 ± 0.85 | 1.269 and 4.138 | Biochemical activity against BRD4 (BD1 + BD2) (BRD4 (BD1+BD2); [11]): 4.399 and 1.862; Biochemical activity against BRD4 (BD1 + BD2) (BRD4 (BD1+BD2); [12]): 3 and 0.4387; Biochemical activity against BRD4 (BD1 + BD2) (BRD4 (BD1+BD2); [13]): 12.3903 and 19.5044; Biochemical activity against BRD4 (BD1 + BD2) (BRD4 (BD1+BD2); [14]): 74.9941 and 70.1565; Biochemical activity against BRD4 (BD1 + BD2) (BRD4 (BD1+BD2); [15]): 100.036 and 99.751; Biochemical activity against BRD4 (BD1 + BD2) (BRD4 (BD1+BD2); [16]): 101.174 and 100.605; Biochemical activity against BRD4 (BD1 + BD2) (BRD4 (BD1+BD2); Fig.1d, concentration(nM) 3): 100.889 and 100.32; Cellular activity in SCLCs (H211), alamarBlue ([2]; concentration 0.0169701): 1.74 and 11.45; Cellular activity in SCLCs (H211), alamarBlue ([2]; concentration 0.0398488): 4.56 and 9.08; Cellular activity in SCLCs (H211), alamarBlue ([2]; concentration 0.137272): 4.2 and 14.84; Cellular activity in SCLCs (H211), alamarBlue ([2]; concentration 0.614394): 15.53 and 29.79; Cellular activity in SCLCs (H211), alamarBlue ([2]; concentration 1.09152): 68.35 and 72.54; Cellular activity in SCLCs (H211), alamarBlue ([2]; concentration 1.56864): 88.44 and 89.49; Cellular activity in SCLCs (H211), alamarBlue ([2]; concentration 2.04576): 90.64 and 90.52; Cellular activity in SCLCs (H211), alamarBlue ([2]; concentration 3): 89.32 and 90.99; Cellular activity in SCLCs (H211), alamarBlue [2, 17]: 89.13 and 90.21; IC50 [2]: 8.06 ± 0.91 nM
3 | Cc1nnn(C)c1-c1cnc2c3cc4cnn(C)c4cc3n([C@H](c3ccccc3)C3CCOCC3)c2c1 [NHWD-850] | – | – | – | – | – | – | – | – | 20.6 ± 1.31 | 15.75 and 17.7 | 25.28 and 23.6 | 46.11 and 48.16 | 71.17 and 69.3 | 82.44 and 82.62 | 86.67 and 86.03 | 88.63 and 88.4 | 7.16 and 12.83 | 4.44 and 11.66 | 14.5 ± 1.16 | 0.1541 and 1.269 | Biochemical activity against BRD4 (BD1 + BD2) (BRD4 (BD1+BD2); [11]): 12.3903 and 11.5366; Biochemical activity against BRD4 (BD1 + BD2) (BRD4 (BD1+BD2); [12]): 4.399 and 8.952; Biochemical activity against BRD4 (BD1 + BD2) (BRD4 (BD1+BD2); [13]): 7.837 and 3; Biochemical activity against BRD4 (BD1 + BD2) (BRD4 (BD1+BD2); [14]): 31.456 and 32.5943; Biochemical activity against BRD4 (BD1 + BD2) (BRD4 (BD1+BD2); [15]): 96.9054 and 95.198; Biochemical activity against BRD4 (BD1 + BD2) (BRD4 (BD1+BD2); [16]): 100.036 and 100.889; Biochemical activity against BRD4 (BD1 + BD2) (BRD4 (BD1+BD2); Fig.1d, concentration(nM) 3): 99.751 and 100.889; Cellular activity in SCLCs (H211), alamarBlue ([2]; concentration 0.0169701): 0.35 and 1.87; Cellular activity in SCLCs (H211), alamarBlue ([2]; concentration 0.0398488): 0.32 and 1.84; Cellular activity in SCLCs (H211), alamarBlue ([2]; concentration 0.137272): 0.23 and -0.84; Cellular activity in SCLCs (H211), alamarBlue ([2]; concentration 0.614394): 7.16 and 14.38; Cellular activity in SCLCs (H211), alamarBlue ([2]; concentration 1.09152): 35.94 and 34.48; Cellular activity in SCLCs (H211), alamarBlue ([2]; concentration 1.56864): 89.1 and 88.35; Cellular activity in SCLCs (H211), alamarBlue ([2]; concentration 2.04576): 90.09; Cellular activity in SCLCs (H211), alamarBlue ([2]; concentration 3): 89.78 and 89.22; Cellular activity in SCLCs (H211), alamarBlue [2, 17]: 89.03 and 89.34; IC50 [2]: 16 ± 1.21 nM
4 | Cc1nnn(C)c1-c1cnc2c3c4ccn(C)c4ccc3n([C@H](c3ccccc3)C3CCOCC3)c2c1 [NHWD-830] | 0.8628 and 1.4579 | 6.575 and 2.559 | 10.2946 and 5.683 | 69.3038 and 62.4692 | 79.3216 and 83.6358 | 95.8346 and 94.942 | 100.744 and 99.5537 | 101.346 and 101.785 | 10.2 | – | – | – | – | – | – | – | – | – | – | – | –
5 | Cc1nnn(C)c1-c1cnc2c3cc4c(cnn4C)cc3n([C@H](c3ccccc3)C3CCOCC3)c2c1 [NHWD-840] | – | – | – | – | – | – | – | – | 28.3 ± 1.45 | 9.03 and 8.43 | 17.61 and 17.32 | 35.92 and 25.61 | 53.39 and 55.36 | 70.13 and 73.2 | 91.51 and 91.02 | 94.65 and 95.19 | 6.21 and 5.27 | 2.77 and 4.58 | 31.6 ± 1.5 | 6.699 and 2.7152 | Biochemical activity against BRD4 (BD1 + BD2) (BRD4 (BD1+BD2); [11]): 2.407 and 5.845; Biochemical activity against BRD4 (BD1 + BD2) (BRD4 (BD1+BD2); [12]): 1.577 and 18.3661; Biochemical activity against BRD4 (BD1 + BD2) (BRD4 (BD1+BD2); [13]): 2.146 and 9.5447; Biochemical activity against BRD4 (BD1 + BD2) (BRD4 (BD1+BD2); [14]): 15.5205 and 30.3178; Biochemical activity against BRD4 (BD1 + BD2) (BRD4 (BD1+BD2); [15]): 82.9618 and 83.2464; Biochemical activity against BRD4 (BD1 + BD2) (BRD4 (BD1+BD2); [16]): 99.4664 and 98.6128; Biochemical activity against BRD4 (BD1 + BD2) (BRD4 (BD1+BD2); Fig.1d, concentration(nM) 3): 101.174 and 100.889; Cellular activity in SCLCs (H211), alamarBlue ([2]; concentration 0.0169701): 11.62 and 22.01; Cellular activity in SCLCs (H211), alamarBlue ([2]; concentration 0.0398488): 7.96 and 8.04; Cellular activity in SCLCs (H211), alamarBlue ([2]; concentration 0.137272): 3.53 and 13.11; Cellular activity in SCLCs (H211), alamarBlue ([2]; concentration 0.614394): 11.24 and 2.1; Cellular activity in SCLCs (H211), alamarBlue ([2]; concentration 1.09152): 18.38 and 12.66; Cellular activity in SCLCs (H211), alamarBlue ([2]; concentration 1.56864): 47.24 and 47.49; Cellular activity in SCLCs (H211), alamarBlue ([2]; concentration 2.04576): 87.44 and 87.79; Cellular activity in SCLCs (H211), alamarBlue ([2]; concentration 3): 95.52 and 94.98; Cellular activity in SCLCs (H211), alamarBlue [2, 17]: 93.3 and 93.73; IC50 [2]: 38 ± 1.58 nM
6 | Cc1nnn(C)c1-c1cnc2c3cc4c(cc3n([C@H](c3ccccc3)C3CCOCC3)c2c1)CN(C)C4=O [NHWD-540] | 5.534 and 1.544 | 6.278 and 5.237 | 11.7822 and 11.931 | 36.626 and 29.039 | 74.1149 and 79.0241 | 94.7932 and 97.1735 | 100.446 and 100.744 | 101.488 and 101.636 | 18.1 | – | – | – | – | – | – | – | – | – | – | – | –
7 | Cc1nnn(C)c1-c1cnc2c3c4c(ccc3n([C@H](c3ccccc3)C3CCOCC3)c2c1)C(=O)N(C)C4 [NHWD-560] | 10.1562 and 13.125 | 5 and 10.625 | 14.5312 and 15.4688 | 33.5938 and 32.5 | 66.25 and 68.125 | 95.625 and 95 | 101.719 | 102.344 and 102.5 | 19.5 | – | – | – | – | – | – | – | – | – | – | – | –
